# Test results from patent US6555055B1, “System for preventing and remediating biofilms in dental equipment” (Lynntech, Inc., priority 1998, dated 2003).
# Experiments:
# [1] = tested on: bacteria; conditions: cited from earlier work
# [2] = tested on: established biofilm in a previously used dental unit
# Description: The experiment consisted of first re-invigorating an established biofilm in a previously used dental unit (A-Dec, a 1980 model) by running tap water, which had been determined to have a bacterial count of 10^4 cfu/mL, through the apparatus at hourly intervals between 9:00 a.m. and 4:00 p.m. for a total of 10 days. […] This limited the organisms monitored to those originating from the biofilm.
# Only one bottle was used at a time, either one containing deionized water (filtered through a 0.2 micron filter), or one containing a 1% H2O2 solution (Kroger brand 3%, diluted with deionized water to a 1% solution). Every morning at 9:00 a.m., the H2O2 bottle was connected to the compressed air cylinder and the junction box (which connects the reservoir to the dental cart). The second air cylinder was directly connected to the junction box which provided air to the dental cart tools and allowed the peroxide or water solution to be misted out of the high-speed handpiece to simulate dental office use. Both air cylinders were opened, and H2O2 was run through the unit by pressurizing the bottle. A 50 mL bolus of the H2O2 solution was run through as the line to the dental cart/handpiece holds approximately 40 mL. The H2O2 bottle was then removed, and the bottle containing only water was connected into the set-up in exactly the same way. Approximately 150 mL of water were run through the unit to ensure that all of the H2O2 was rinsed out of the line. For the remainder of the day, to simulate normal operation in a dentist's office where the water is left stagnant 99% of the time, the line was flushed with 150 mL of water every hour. At 4:00 p.m., a 2 mL sample of water was collected from the high-speed handpiece into a 15 mL sterile centrifuge tube (Fisher brand). […] The plates were counted using a MANOSTAT brand colony counter after 2-3 days incubation time at 37° C., selected as the optimal growth temperature for human pathogens.
# After the H2O2 treatment, 150 mL of sterile, deionized water was run through the unit at hourly intervals between the hours of 9:00 a.m. and 4:00 p.m. to simulate normal dental office operating conditions, where water is left stagnant most of the time. On day 35, the unit was treated for 4 days with 2% H2O2 in the same manner previously described. This was done to assess the effect of higher concentrations of peroxide on the biofilm.
# On day 40, the peroxide treatment procedure was changed slightly. Instead of applying the 2% H2O2 solution in the morning it remained in the dental lines overnight. From 9.00 a.m. to 4 p.m. daily the unit was flushed with 150 mL of sterile water. […] At 9.00 a.m., the following morning, the sterile water flushes began again.
# At the end of the day after the last flushing, a 2 mL sample of water was collected from the hand piece. […]
smiles,measurement,setting,value
OO [hydrogen peroxide],Effect against a broad range of pathogens,"[1]; 3%, Juven and Pierson",quite effective
same,Minimum level for use in an acidic sanitizing solution (lowest concentration described as effective as a germicide),"[1]; 21 CFR Part 178.1010 (c) (39), food utensils and food handling surfaces",≥ 72 ppm
same,Concentration for bacteriostatic activity,[1]; Juven and Pierson,0.0005%
same,Onset of bactericidal activity,[1]; Juven and Pierson,0.0034%
same,Concentration required for broad bactericidal action over a short time span (minutes),[1]; Thomas et. al.,at least 0.1%
same,Concentrations suppressing bacterial growth (bacteriostatic action),[1]; Thomas et. al.,≥ 0.0007%
same,Concentrations of biostatic control,[1],< 0.1%
same,Concentrations of efficient biocidal control,[1],1%
same,Concentrations at which it is a potent bacteriostat,[1]; known,less than 100 ppm
same,Level demonstrated to be effective against existing biofilms,[2],2%
same,Microbial load of water from the high-speed handpiece,"[2]; 1% H2O2 applied in the morning, sample in the afternoon after hourly flushings, initial applications (Region II)",< 200 cfu/mL
same,Bacterial count of water from the handpiece,"[2]; 2% H2O2 left in the lines overnight, from day 40 onwards, initial results",< 200 cfu/mL
same,Bacterial cell counts,"[2]; 2% solution, applied in the morning, from day 35 for 4 days (Region IV)",lower bacterial cell counts than a 1% solution
